pIC50: −log10 of the molar value.
biological target: T1, kinase domain of IRE1 alpha (Homo sapiens, UniProt O75460, D688N); assay: IRE1α TR-FRET competition binding assay; settings: Kinase Tracer 236 0.1 μM; kinase dead IRE1 alpha KR construct
T1 construct: (KR, AA G547-L977, D688N); made in house; host or cells: Sf9 insect cells
Description: To determine the affinity of compound binding to the kinase domain of IRE1 alpha, a Time Resolved Fluorescence Resonance Energy Transfer (TR-FRET) competition assay was used. A His-tagged IRE1 alpha kinase dead construct containing the kinase and RNase domains (KR, AA G547-L977, D688N) was expressed in Sf9 insect cells. The purified protein (final concentration 0.006 OA micromolar) was pre-incubated with anti-His Europium labeled antibody (Life Technologies PV5596, final concentration 0.002 OA micromolar) for one hour at 4° C. in 1×TR-FRET Assay Buffer (50 mM HEPES, pH 7.5, 10 mM MgCl2, 0.083 mM Brij 35, 1 mM DTT, and 0.1% bovine gamma globulin) prior to addition to test compounds. A fluorescent labeled probe based on an ATP competitive inhibitor (Kinase Tracer 236, Life Technologies PV5592) is added to a final concentration of 0.1 μM (micromolar). Reactions were carried out for one hour at room temperature in a final volume of 20 μL (microliter) in 384 well white ProxiPlates (Perkin Elmer 6008289). Binding of the tracer to the IRE1 protein alpha was detected in an Envision instrument (PerkinElmer) equipped with a TRF laser option and a LANCE/Delfia Dual/Bias D400/D630 mirror (Ex 347 nm, 1st Em 665 nm, 2nd Em 615 nm).
Exemplary compounds depicted in Table 1 were tested in the IRE1α binding assays.

T1 sequence (O75460 547-977 D688N): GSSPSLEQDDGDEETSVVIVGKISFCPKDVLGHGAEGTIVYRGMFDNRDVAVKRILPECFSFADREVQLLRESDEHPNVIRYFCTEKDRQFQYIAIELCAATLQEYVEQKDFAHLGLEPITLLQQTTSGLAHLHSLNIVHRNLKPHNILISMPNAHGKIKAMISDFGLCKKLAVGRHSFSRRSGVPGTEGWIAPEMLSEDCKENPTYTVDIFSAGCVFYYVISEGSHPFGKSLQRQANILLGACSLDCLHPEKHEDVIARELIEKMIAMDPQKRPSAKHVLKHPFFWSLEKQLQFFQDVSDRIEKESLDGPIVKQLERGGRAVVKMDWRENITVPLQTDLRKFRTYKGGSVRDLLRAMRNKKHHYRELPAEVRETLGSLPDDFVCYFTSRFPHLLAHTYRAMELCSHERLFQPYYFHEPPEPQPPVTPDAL

pIC50 | Compound
8.21 | Cc1ccc2c(NS(=O)(=O)c3ccccc3Cl)cccc2c1Oc1nnccc1-c1ccnc(N[C@H]2CCCNC2)n1 [Compound 1, (S)-2-chloro-N-(6-methyl-5-((4-(2-(piperidin-3-ylamino)pyrimidin-4-yl)pyridazin-3-yl)oxy)naphthalen-1-yl)benzenesulfonamide]
7.42 | Cc1ccc2c(NC(=O)C3CC3)cccc2c1Oc1nnccc1-c1ccnc(N[C@H]2CCCNC2)n1 [Compound 2, (S)-N-(6-methyl-5-((4-(2-(piperidin-3-ylamino)pyrimidin-4-yl)pyridazin-3-yl)oxy)naphthalen-1-yl)cyclopropanecarboxamide]
7.92 | CCCS(=O)(=O)Nc1cccc2c(Oc3nnccc3-c3ccnc(N[C@H]4CCCNC4)n3)c(C)ccc12 [Compound 3, (S)-N-(6-methyl-5-((4-(2-(piperidin-3-ylamino)pyrimidin-4-yl)pyridazin-3-yl)oxy)naphthalen-1-yl)propane-1-sulfonamide]
8.48 | CCCS(=O)(=O)Nc1c(F)ccc2c(Oc3ncncc3-c3ccnc(N[C@@H]4CNC[C@@H](F)C4)n3)c(C)ccc12 [Compound 4, N-(2-fluoro-5-((2-(((3S,5S)-5-fluoropiperidin-3-yl)amino)-[4,5′-bipyrimidin]-4′-yl)oxy)-6-methylnaphthalen-1-yl)propane-1-sulfonamide]
8.51 | Cc1ccc2c(NS(=O)(=O)CCC(C)(F)F)c(F)ccc2c1Oc1nnccc1-c1ccnc(N[C@@H]2CNC[C@@H](F)C2)n1 [Compound 5, 3,3-difluoro-N-[2-fluoro-6-methyl-5-[4-[2-[[-(3S,5S)-5-fluoro-3-piperidyl]amino]pyrimidin-4-yl]pyridazin-3-yl]oxy-1-naphthyl]butane-1-sulfonamide]
8.15 | CCCS(=O)(=O)Nc1c(F)ccc2c(Oc3nnccc3-c3ccnc(N[C@@H]4CNC[C@@H](F)C4)n3)c(C)ccc12 [Compound 6, N-(2-fluoro-5-((4-(2-(((3S,5S)-5-fluoropiperidin-3-yl)amino)pyrimidin-4-yl)pyridazin-3-yl)oxy)-6-methylnaphthalen-1-yl)propane-1-sulfonamide]

tested on: cells; assay: not given; settings: high levels; cited from earlier work

Compound | toxicity in cells
Cc1cc(=O)oc2c(C=O)c(O)ccc12 [Compound 4μ8C] | no measurable toxicity
